This note sets out measurements from patent publication US7455855B2, “Delivering substance and drug delivery system using the same” (Santen Pharmaceutical Co., Ltd., priority 2000, dated 2008).

Where a name gives a salt, the structure may show the parent alone. Read-outs that look alike come from different tables or passages of the source. Bounds are passed on as bounds.

The conditions of series [1]: 3H-labelled, 100 μl/eye into vitreous body, moment method, 1 to 21 days, average of three samples.
A short description of series [2]: Intraocular kinetic tests by fluorophotometry after injection into the vitreous body. The series is classed as in vivo, white rabbits. As to conditions: for half-life: rabbit, other: injection into the vitreous body (intravitreal). Here is the method: Intraocular kinetic tests were conducted by the following methods using the delivering substances A and B containing a fluorescence.
The same procedure as mentioned above was repeated except that fluorescein sodium was used instead of the delivering substances A and B to prepare a 10 μg/ml injection containing fluorescein sodium for comparison.
1) A mixed solution containing an aqueous ketamine hydrochloride solution (50 mg/ml) and an aqueous xylazine hydrochloride (50 mg/ml) in a ratio of 7:3 was administered intramuscularly to white rabbits to anesthetize.
2) A tropicamide (0.5%)/phenylephrine hydrochloride (0.5%) ophthalmic solution was instilled into both eyes to cause mydriasis in the both eyes.
3) The both eyes were anesthetized with an oxybuprocaine hydrochloride (0.5%) ophthalmic solution.
4) Each of the above-mentioned injection was administered to the center of a vitreous body from an ocular pars plana with a syringe equipped with a 30G needle.
5) Intraocular fluorescence intensity was measured with a fluorophotometry apparatus after the administration to the vitreous body at 1, 4, 7, 15, 35 and 56 days. A calibration curves were prepared, changes in concentration in the vitreous body and a retina were determined, and respective half-lives were calculated. The above-mentioned operations 1) and 2) were carried out before the intraocular fluorescence intensity was measured, too.
The numerical values in Tables 1 and 2 are the average of three samples respectively.

Usually half-life stands for how long it takes for the measured level to halve.

For `C[C@]12N[C@H](Cc3ccccc31)c1ccccc12` [Comparative substance X, [5R,10S]-(+)-5-methyl-10,11-dihydro-5H-dibenzo[a,d]cycloheptene-5,10-imine maleate], the “Half-life (days) in the retina” value in series [1] (retina) came out at 0.6 days. In addition, the “Half-life (days) in the vitreous body” value in series [1] (vitreous body) stood at 0.5 days.

`O=C1OC2(c3ccc(O)cc3Oc3cc(O)ccc32)c2ccccc21` [Fluorescein sodium, fluorescein sodium]: the half-life is below 0.1 days in series [2] (retina, restated in hours in the text, read-out: half-life in the retina); below 0.1 days in series [2] (white, 10 μg/ml, retina, injection into the vitreous body, moment method from data measured 1 to 56 days after injection, average of three samples, read-out: Half-life (days) in the retina); below 0.2 days in series [2] (white, vitreous body, injection into the vitreous body, moment method from data measured 1 to 35 days after injection, average of three samples, read-out: Half-life (days) in the vitreous body). For the same molecule, in series [2] (vitreous body, restated in hours in the text), the “half-life in the vitreous body” value is given as “less than five hours”.
